Here are results for two molecules from patent EP1475385A1 (Newron Pharmaceuticals S.p.A., priority 2003, dated 2004).

Where two headings read alike, the source gives them in different places.

Assay [1] relates to GLU. The assay can be described thus: Striatal GLU release by transcerebral microdialysis (caudate). It counts as in vivo, Wistar rats. As to conditions: caudate dialysate. The protocol:
(§1) Striatal GLU release: Transcerebral microdialysis tubing having an exposed length of 1 mm for each caudate, were implanted through small burr holes drilled in the skull of anesthetized male Wistar rats. Approximately twelve hours after surgery, in freely moving animals, the membranes were perfused at a flow rate of 3.5 µl/min. After a washout period of approximately one hour, fractions were collected to determine the basal output of KYNA and of GLU. KYNA was measured using HPLC with post column derivatization and fluorometric detection as previously reported. HPLC separation and fluorometric detection was also used for quantitative measurements of GLU (Carpenedo et al 2001, Europ. J. Neuroscience 13, 2141-2147).

The test system of assay [2] is KYNA. The assay can be described thus: Measurement of hippocampal KYNA levels by microdialysis. It counts as in vivo, rats. The protocol:
Measurement of hippocampal kyna levels: Microdialysis was performed in adult, male rats (Charles-River; 200-250 g). Under anesthesia, a microdialysis probe (CMA/10, membrane length: 2 mm, Carnegie […], Stockholm, Sweden) was implanted vertically into the brain, extending throughout the dorsal hippocampus. On the next day, the probe was connected to a microperfusion pump, and the hippocampus of the unanesthetized rat was perfused with Ringer solution at a speed of 1 microliter/min. Dialysate was collected every 30 min. The concentration of KYNA in the dialysis samples was determined by HPLC with fluorimetric detection, using the analytical procedure described by Wu et al. (Eur. J. Neurosci., 4: 1264-1270,1992).

Assay [3] has as its system KYNA. The assay can be described thus: KYNA output in caudate dialysate by transcerebral microdialysis. In kind it is in vivo, Wistar rats. The protocol: as §1
Assay [4] has as its target T1, brain KMO (Rattus norvegicus, UniProt O88867).
T1 construct: from tissue; host or cells: rat brain cortex, mitochondrial fraction (male Wistar rats)
The assay can be described thus: In vitro KMO activity determination (rat brain mitochondria preparation, HPLC of 3-OH-KYN formation). In kind it is biochemical. The protocol:
Rat brain mitochondria preparation: Male Wistar rats were sacrificed and brain quickly removed, cortex was dissected out on ice and homogenized in 2.5 volumes of ice-cold 0.32 M saccarose using a glass-Teflon homogenizer. After centrifugation at 600 g for 10 min at 4°C, the supernatant was stored and the pellet was washed and centrifuged again. The two supernatants were pooled and centrifuged at 10,000 g for 10 min at 4°C. The pellet was washed in fresh saccarose and centrifuged twice at 15,000 g for 10 min at 4°C. The pellet (corresponding to the mitochondrial fraction) was resuspended in 2.5 volumes of ice-cold 20 mM potassium phosphate buffer containing 0.14 M KCl, pH 7.0. Protein content was determined by BCA protein assay kit from Pierce.
In vitro KMO activity determination: The enzyme activity was evaluated by measuring by HPLC the formation of 3-OH-KYN in homogenates incubated in the presence of a fixed concentration of KYN (close to the enzyme Km that in our experimental conditions is 30 µM) […]
IC50 values were determined from three independent inhibition curves using at least seven different inhibitor concentrations using non linear regression analysis (best fitting aided-computer program.

The target in assay [5] is KMO (Homo sapiens, UniProt O15229). As to conditions: reported in WO 98/40344; read-out: IC50 for KMO inhibition; cited from earlier work.
Sequence of KMO (O15229 whole entry, species assumed): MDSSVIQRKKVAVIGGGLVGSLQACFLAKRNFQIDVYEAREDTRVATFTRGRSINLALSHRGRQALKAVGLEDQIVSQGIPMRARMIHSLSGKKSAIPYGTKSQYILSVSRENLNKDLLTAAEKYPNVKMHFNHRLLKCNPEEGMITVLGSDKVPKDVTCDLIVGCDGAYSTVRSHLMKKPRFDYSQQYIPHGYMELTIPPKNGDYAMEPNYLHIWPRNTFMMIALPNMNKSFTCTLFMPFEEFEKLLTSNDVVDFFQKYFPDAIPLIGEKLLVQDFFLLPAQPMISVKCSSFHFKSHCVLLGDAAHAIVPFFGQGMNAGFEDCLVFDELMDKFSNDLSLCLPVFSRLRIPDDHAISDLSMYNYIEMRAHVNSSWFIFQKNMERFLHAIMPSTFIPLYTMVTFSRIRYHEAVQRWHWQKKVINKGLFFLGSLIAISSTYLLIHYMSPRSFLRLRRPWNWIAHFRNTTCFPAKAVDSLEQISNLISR

As usually defined, the IC50 is the concentration needed to halve the response being measured.

T1 sequence (O88867 whole entry): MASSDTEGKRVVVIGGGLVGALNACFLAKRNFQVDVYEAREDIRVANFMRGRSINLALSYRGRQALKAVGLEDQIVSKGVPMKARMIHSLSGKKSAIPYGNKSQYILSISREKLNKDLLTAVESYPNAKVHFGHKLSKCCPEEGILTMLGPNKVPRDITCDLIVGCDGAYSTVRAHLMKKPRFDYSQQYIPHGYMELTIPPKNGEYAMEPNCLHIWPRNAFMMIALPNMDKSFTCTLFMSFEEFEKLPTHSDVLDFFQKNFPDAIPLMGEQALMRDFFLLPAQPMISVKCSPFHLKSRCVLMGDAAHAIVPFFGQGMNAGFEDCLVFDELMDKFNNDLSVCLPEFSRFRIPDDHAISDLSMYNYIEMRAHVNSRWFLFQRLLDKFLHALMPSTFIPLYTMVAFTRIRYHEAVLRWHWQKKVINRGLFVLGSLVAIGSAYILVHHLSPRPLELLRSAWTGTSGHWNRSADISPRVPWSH

For `O=C(OC[C@H]1O[C@H](O)[C@H](O)[C@@H](O)[C@H]1O)[C@H]1C[C@@H]1C(=O)c1ccc(Cl)c(Cl)c1`, the “decrease in GLU concentrations” value is reported as -65% in assay [1] (24 h later) and -78 ± 8% in assay [1] (highest dose (30-100 µmol/kg i.p.), in 2 hrs (maximum), basal 4.3 ± 0.9 µM). In assay [2] (hippocampus dialysate, 50 mg/kg ip, 6 hours after drug administration, mean ± SEM, P< 0.01, basal 2.6 ± 0.2 nM), the “KYNA extracellular concentration, maximum increase” value was found to be 26.7 ± 2.2 nM. The “brain KYNA content” value in assay [2] (hippocampus, 25 and 50 mg/kg i.p., systemic administration) is reported as “dose-dependently increased”. Besides, in assay [2] (hippocampus, up to 24 h after both 25 and 50 mg/kg i.p., P<0.05), the “dialysate KYNA concentration” value is on record as “significant increase”. Further, in assay [3] (180 min after drug administration, basal 13.2 ± 0.1 nM), the “brain KYNA content, maximum increase” value is “+750%”. In addition, the “increase in dialysate KYNA concentration” value in assay [3] (up to 24 h after 100 µmol/kg i.p.) is reported as “+280%”. Besides, the IC50 result is “not significantly different” in assay [4] (compound preincubated with mitochondria preparation for 30 min before adding the substrate (KYN), compared with IC50 without pre-incubation) and 66 nM in assay [4] (in vitro brain KMO, without pre-incubation, KYN 50 µM, 60 min at 37°C, read-out: IC50).
Regarding `O=C(O)C1CC1C(=O)c1ccc(Cl)c(Cl)c1` (stereo not shown) [2-(3,4-dichlorobenzoyl)-cyclopropane-1-carboxylic acid], in assay [5], the IC50 is 180 nM.
